Tests used:
Assay in all cases: Microbial challenge testing in BPW
Format in all cases: cell-based
Escherichia coli = settings: for Grade code, E. coli, 3 Day / Grade code, E. coli, 14 Day / Grade code, E. coli, 30 Day: BPW, w/v % in label, average of replicates
Protocol: (§1) The microorganisms used in challenge tests are given in Table 3, designated as either ATCC (American Type Culture Collection) or wild type. These wild type organisms were problematic organisms previously isolated from chemical products. In the description for each organism, the bacteria are indicated as either GN (Gram negative) or GP (Gram positive).
(§2) All of the microorganisms were grown in Tryptose Soy Broth (TSB), DIFCO™ available from Becton, Dickinson and Company, containing 1% dextrose. Aspergillus niger and Candida albicans were incubated at 22° C.±2° C. for at least 96 hours. All bacteria were incubated at 35° C.±2° C. in a humidified incubator for at least 96 hours.
(§3) The following procedure was followed to determine the amount of each challenge material (inoculum broth) required to produce a 10^8 cfu/mL challenge, which is equivalent to a final test-sample microbial concentration of 10^5 to 10^6 cfu (colony-forming units)/mL.
(§4) Using a sterile serological pipette, 1 mL of the growth from each TSB culture was transferred into tubes containing 9 mL phosphate buffer (pH 7.2) and mixed thoroughly. This process was repeated to make serial 1:10 dilutions. Then 0.1 mL of each sample and dilution was inoculated onto agar plates to produce the equivalent of a further 1:10 dilution. C. albicans and A. niger were inoculated onto SDA and bacteria were inoculated onto Plate Count Agar (PCA), DIFCO™ available from Becton, Dickinson and Company. The 0.1 mL aliquots were evenly distributed on the plates using the spread-plate technique. The spread-plate technique is performed by spreading the aliquot over the entire plate surface using a sterile spreading rod while rotating the plate with a rotary auto-plater. After the inoculum was absorbed completely, each plate was inverted and incubated (fungi at 22° C.±2° C. and bacteria at 35° C.±2° C.).
(§5) After incubation for at least 48 hours, colonies that had developed on the agar plates were counted and recorded with the corresponding dilution. If counting had to be delayed temporarily, plates were refrigerated, preferably no more than 24 hours, until they could be counted. The number of cfu/mL was determined by multiplying the count by the dilution factor for that particular plate.
(§6) Turbidity in Nepholemetric Turbidity Units (NTU) was measured for each serial dilution using the HF-Micro 100 Model Turbidimeter. For each microorganism, the plate counts were compared to the turbidity readings.
(§7) Control substrates (“broth alone”) were prepared for each microorganism separately in triplicate by adding 13.5 mL of BPW (pH 7.0) containing 1% (w/v) dextrose to each 20-mL glass tube; then adding 1.5 mL challenge material to produce a final concentration at time zero of 10^5 to 10^6 cfu/mL and a total volume of 15 mL.
(§8) Test sample substrates were prepared containing each test material (1,4-CHDM, etc) or combination of test materials at the concentrations shown in Tables 5 and 6. Sample substrates were prepared in triplicate, except those substrates containing PE or CG which were prepared in duplicate. Substrates were prepared by adding BPW containing 1% (w/v) dextrose to each 20-mL glass tube, then adding the test material in the amount appropriate to achieve the desired weight/volume percent (g/100 mL) and to obtain a total volume of BPW with dextrose and test material of 13.5 mL. Then 1.5 mL challenge material was added to produce a final concentration at time zero of 10^5 to 10^6 cfu/mL of the respective organism and a total test sample substrate volume of 15 mL.
(§9) After mixing, all challenged substrates were incubated at 35° C.±2° C. for 14 days and then at ambient room temperature.

Proteus vulgaris = settings: for Grade code, P. vulgaris, 3 Days / Grade code, P. vulgaris, 13 Days / Grade code, P. vulgaris, 30 Day: BPW, w/v % in label, average of replicates
Protocol: as §1, §2, §3, §4, §5, §6, §7, §8, §9

Streptococcus mutans = tested on: Streptococcus mutans
Protocol: as §1, §2, §3, §4, §5, §6, §7, §8, §9

[1] = 3 days incubation, listed as 0.5% AB
[2] = 3 days incubation, listed as 1.25% AB
[3] = 3 days incubation, listed as 2.5% AB
[4] = 30 days incubation, listed as 0.5% AB
[5] = 30 days incubation, listed as 1.25% AB
[6] = 30 days incubation, listed as 2.5% AB

OCC1CCC(CO)CC1 (stereo not shown) [1,4-CHDM, 1,4-cyclohexanedimethanol]
Grade code E. coli (Escherichia coli; 0.5%, 3 days incubation): 5 (More than 10,000 colonies estimated (thus >100,000 cfu/mL)) | Grade code E. coli (Escherichia coli; 0.5%, 14 days incubation): 4 (1001 to 10,000 colonies (thus 10,000 cfu/mL to 100,000 cfu/mL)) | Grade code E. coli (Escherichia coli; 0.5%, 30 days incubation): 4 (1001 to 10,000 colonies (thus 10,000 cfu/mL to 100,000 cfu/mL)) | Grade code E. coli (Escherichia coli; 1.25%, 3 days incubation): 4 (1001 to 10,000 colonies (thus 10,000 cfu/mL to 100,000 cfu/mL)) | Grade code E. coli (Escherichia coli; 1.25%, 14 days incubation): 4 (1001 to 10,000 colonies (thus 10,000 cfu/mL to 100,000 cfu/mL)) | Grade code E. coli (Escherichia coli; 1.25%, 30 days incubation): 4 (1001 to 10,000 colonies (thus 10,000 cfu/mL to 100,000 cfu/mL)) | Grade code E. coli (Escherichia coli; 2.5%, 3 days incubation): 3 (101 to 1000 colonies (thus 1000 to 10,000 cfu/mL)) | Grade code E. coli (Escherichia coli; 2.5%, 14 days incubation): 2 (52 to 100 colonies counted (thus 520 to 1000 cfu/mL)) | Grade code E. coli (Escherichia coli; 2.5%, 30 days incubation): 0 (No growth detected or <1 colony (thus <10 cfu/mL)) | Grade code, E. coli, 3 Day (Escherichia coli; [1]): 5 (More than 10,000 colonies estimated (thus >100,000 cfu/mL)) | Grade code, E. coli, 3 Day (Escherichia coli; [2]): 4 (1001 to 10,000 colonies (thus 10,000 cfu/mL to 100,000 cfu/mL)) | Grade code, E. coli, 3 Day (Escherichia coli; [3]): 3 (101 to 1000 colonies (thus 1000 to 10,000 cfu/mL)) | Grade code, E. coli, 14 Day (Escherichia coli; 14 days incubation, listed as 0.5% AB): 4 (1001 to 10,000 colonies (thus 10,000 cfu/mL to 100,000 cfu/mL)) | Grade code, E. coli, 14 Day (Escherichia coli; 14 days incubation, listed as 1.25% AB): 4 (1001 to 10,000 colonies (thus 10,000 cfu/mL to 100,000 cfu/mL)) | Grade code, E. coli, 14 Day (Escherichia coli; 14 days incubation, listed as 2.5% AB): 2 (52 to 100 colonies counted (thus 520 to 1000 cfu/mL)) | Grade code, E. coli, 30 Day (Escherichia coli; [4]): 4 (1001 to 10,000 colonies (thus 10,000 cfu/mL to 100,000 cfu/mL)) | Grade code, E. coli, 30 Day (Escherichia coli; [5]): 4 (1001 to 10,000 colonies (thus 10,000 cfu/mL to 100,000 cfu/mL)) | Grade code, E. coli, 30 Day (Escherichia coli; [6]): 0 (No growth detected or <1 colony (thus <10 cfu/mL)) | Grade code P. vulqaris (Proteus vulgaris; 0.5%, 3 days incubation): 4 (1001 to 10,000 colonies (thus 10,000 cfu/mL to 100,000 cfu/mL)) | Grade code P. vulqaris (Proteus vulgaris; 0.5%, 13 days incubation): 4 (1001 to 10,000 colonies (thus 10,000 cfu/mL to 100,000 cfu/mL)) | Grade code P. vulqaris (Proteus vulgaris; 0.5%, 30 days incubation): 4 (1001 to 10,000 colonies (thus 10,000 cfu/mL to 100,000 cfu/mL)) | Grade code P. vulqaris (Proteus vulgaris; 1.25%, 3 days incubation): 3 (101 to 1000 colonies (thus 1000 to 10,000 cfu/mL)) | Grade code P. vulqaris (Proteus vulgaris; 1.25%, 13 days incubation): 2 (52 to 100 colonies counted (thus 520 to 1000 cfu/mL)) | Grade code P. vulqaris (Proteus vulgaris; 1.25%, 30 days incubation): 0 (No growth detected or <1 colony (thus <10 cfu/mL)) | Grade code P. vulqaris (Proteus vulgaris; 2.5%, 3 days incubation): 1 (1 to 51 colonies counted (thus 10 to 510 cfu/mL)) | Grade code P. vulqaris (Proteus vulgaris; 2.5%, 13 days incubation): 0 (No growth detected or <1 colony (thus <10 cfu/mL)) | Grade code P. vulqaris (Proteus vulgaris; 2.5%, 30 days incubation): 0 (No growth detected or <1 colony (thus <10 cfu/mL)) | Grade code, P. vulgaris, 3 Days (Proteus vulgaris; [1]): 4 (1001 to 10,000 colonies (thus 10,000 cfu/mL to 100,000 cfu/mL)) | Grade code, P. vulgaris, 3 Days (Proteus vulgaris; [2]): 3 (101 to 1000 colonies (thus 1000 to 10,000 cfu/mL)) | Grade code, P. vulgaris, 3 Days (Proteus vulgaris; [3]): 1 (1 to 51 colonies counted (thus 10 to 510 cfu/mL)) | Grade code, P. vulgaris, 13 Days (Proteus vulgaris; 13 days incubation, listed as 0.5% AB): 4 (1001 to 10,000 colonies (thus 10,000 cfu/mL to 100,000 cfu/mL)) | Grade code, P. vulgaris, 13 Days (Proteus vulgaris; 13 days incubation, listed as 1.25% AB): 2 (52 to 100 colonies counted (thus 520 to 1000 cfu/mL)) | Grade code, P. vulgaris, 13 Days (Proteus vulgaris; 13 days incubation, listed as 2.5% AB): 0 (No growth detected or <1 colony (thus <10 cfu/mL)) | Grade code, P. vulgaris, 30 Day (Proteus vulgaris; [4]): 4 (1001 to 10,000 colonies (thus 10,000 cfu/mL to 100,000 cfu/mL)) | Grade code, P. vulgaris, 30 Day (Proteus vulgaris; [5]): 0 (No growth detected or <1 colony (thus <10 cfu/mL)) | Grade code, P. vulgaris, 30 Day (Proteus vulgaris; [6]): 0 (No growth detected or <1 colony (thus <10 cfu/mL)) | Grade code S. mutans (Streptococcus mutans; 0.5%, 3 days incubation): 4 (1001 to 10,000 colonies (thus 10,000 cfu/mL to 100,000 cfu/mL)) | Grade code S. mutans (Streptococcus mutans; 0.5%, 13 days incubation): 4 (1001 to 10,000 colonies (thus 10,000 cfu/mL to 100,000 cfu/mL)) | Grade code S. mutans (Streptococcus mutans; 0.5%, 30 days incubation): 4 (1001 to 10,000 colonies (thus 10,000 cfu/mL to 100,000 cfu/mL)) | Grade code S. mutans (Streptococcus mutans; 1.25%, 3 days incubation): 4 (1001 to 10,000 colonies (thus 10,000 cfu/mL to 100,000 cfu/mL))
